Active and inactive are the calls of the source.
Tests used:
[1] = target: Hexokinase (Trypanosoma brucei, UniProt Q38C41); experiment: Confirmation assay for inhibitors of Trypanosoma brucei hexokinase 1-Analogue-first series. [Related pubchem assays (depositor defined):AID1430, AID1632, AID2516, AID2560, AID2579, AID2600, AID449725, AID492951]; assay type: functional
[2] = target: T1, Short transient receptor potential channel 4 (Mus musculus, UniProt Q9QUQ5); experiment: potentiation of DAMGO-evoked TRPC4 calcium signal – cell-based, HEK293 TRPC4/mu-opioid, Fluo-4 calcium, EC20 DAMGO, dose response (AID 434941); assay type: functional
T1 sequence (Q9QUQ5 whole entry): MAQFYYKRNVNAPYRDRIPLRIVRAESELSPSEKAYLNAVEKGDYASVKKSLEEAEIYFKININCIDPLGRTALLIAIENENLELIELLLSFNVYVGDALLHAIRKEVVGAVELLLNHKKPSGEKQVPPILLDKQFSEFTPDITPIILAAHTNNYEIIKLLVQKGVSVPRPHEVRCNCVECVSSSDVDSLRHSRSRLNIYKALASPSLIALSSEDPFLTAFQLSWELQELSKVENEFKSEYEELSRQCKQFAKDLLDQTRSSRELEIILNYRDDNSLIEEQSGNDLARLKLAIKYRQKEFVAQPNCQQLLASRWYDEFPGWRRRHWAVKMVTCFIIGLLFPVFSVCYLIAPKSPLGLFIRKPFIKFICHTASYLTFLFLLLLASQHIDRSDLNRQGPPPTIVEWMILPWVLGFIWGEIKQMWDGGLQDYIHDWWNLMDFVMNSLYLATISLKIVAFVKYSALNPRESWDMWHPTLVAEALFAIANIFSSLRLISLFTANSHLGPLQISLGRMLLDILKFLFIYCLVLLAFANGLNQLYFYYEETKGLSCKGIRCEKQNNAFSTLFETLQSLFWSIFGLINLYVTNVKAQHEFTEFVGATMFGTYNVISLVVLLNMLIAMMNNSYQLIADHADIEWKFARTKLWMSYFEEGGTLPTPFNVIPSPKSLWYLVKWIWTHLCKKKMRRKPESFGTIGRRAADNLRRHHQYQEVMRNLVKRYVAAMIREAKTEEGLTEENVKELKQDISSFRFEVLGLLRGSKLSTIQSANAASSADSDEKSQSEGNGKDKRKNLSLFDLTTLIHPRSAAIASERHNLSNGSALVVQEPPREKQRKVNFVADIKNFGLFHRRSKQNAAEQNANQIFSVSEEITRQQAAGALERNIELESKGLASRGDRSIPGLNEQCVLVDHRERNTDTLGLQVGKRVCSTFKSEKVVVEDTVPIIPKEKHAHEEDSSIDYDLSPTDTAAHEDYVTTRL

[3] = Luminescence Cell-Based Dose Retest to Confirm Inhibitors of Cancer Stem Cells. [Related pubchem assays (depositor defined):AID2717, AID2721]; assay type: functional; conditions: Homo sapiens
[4] = reduction of Shn3 3'UTR-driven luciferase in osteoblasts – cell-based, Clone20 osteoblasts, firefly luciferase, cherry-picked, dose response (AID 624132); assay type: functional;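 note: firefly luciferase luminescence from reporter carrying the Shn3 3'UTR in osteoblasts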
[5] = non-specific 3'UTR reporter inhibition in Clone20-Shn3RL – cell-based, Renilla luciferase, cherry-picked, counter-screen for Shn3 inhibitor project, dose response (AID 624133); assay type: functional
[6] = system: Streptococcus; experiment: Luminescence Microorganism-Based Dose Response Follow up to Identify Compounds Cytotoxic to Streptococcus. [Related pubchem assays: 1677 (Project Summary), 1915, 1914, 1902 (Retest at Dose), 1900 (Counter Screen), 1662 (Primary HTS)]; assay type: functional, organism-based
[7] = system: HeLa; experiment: viability loss in HeLa cells – cell-based, 24 h, cherry-picked samples, cytotoxicity control, dose response (AID 504726); assay type: functional; conditions: Homo sapiens;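 note: potency for cytotoxicity as loss of luminescence signal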
[8] = target: T2, Insulin-degrading enzyme (Homo sapiens, UniProt P14735); experiment: Dose Response: Fluorescence polarization-based cell-based high throughput dose response assay for inhibitors of insulin-degrading enzyme (IDE). [Related pubchem assays: 434962 (Primary screen (IDE inhibitors in singlicate)), 449730 (Counterscreen (Cytotoxicity in triplicate)), 435028 (Confirmation (IDE inhibitors in triplicate)), 434984 (Summary …; assay type: functional
T2 sequence (P14735 whole entry): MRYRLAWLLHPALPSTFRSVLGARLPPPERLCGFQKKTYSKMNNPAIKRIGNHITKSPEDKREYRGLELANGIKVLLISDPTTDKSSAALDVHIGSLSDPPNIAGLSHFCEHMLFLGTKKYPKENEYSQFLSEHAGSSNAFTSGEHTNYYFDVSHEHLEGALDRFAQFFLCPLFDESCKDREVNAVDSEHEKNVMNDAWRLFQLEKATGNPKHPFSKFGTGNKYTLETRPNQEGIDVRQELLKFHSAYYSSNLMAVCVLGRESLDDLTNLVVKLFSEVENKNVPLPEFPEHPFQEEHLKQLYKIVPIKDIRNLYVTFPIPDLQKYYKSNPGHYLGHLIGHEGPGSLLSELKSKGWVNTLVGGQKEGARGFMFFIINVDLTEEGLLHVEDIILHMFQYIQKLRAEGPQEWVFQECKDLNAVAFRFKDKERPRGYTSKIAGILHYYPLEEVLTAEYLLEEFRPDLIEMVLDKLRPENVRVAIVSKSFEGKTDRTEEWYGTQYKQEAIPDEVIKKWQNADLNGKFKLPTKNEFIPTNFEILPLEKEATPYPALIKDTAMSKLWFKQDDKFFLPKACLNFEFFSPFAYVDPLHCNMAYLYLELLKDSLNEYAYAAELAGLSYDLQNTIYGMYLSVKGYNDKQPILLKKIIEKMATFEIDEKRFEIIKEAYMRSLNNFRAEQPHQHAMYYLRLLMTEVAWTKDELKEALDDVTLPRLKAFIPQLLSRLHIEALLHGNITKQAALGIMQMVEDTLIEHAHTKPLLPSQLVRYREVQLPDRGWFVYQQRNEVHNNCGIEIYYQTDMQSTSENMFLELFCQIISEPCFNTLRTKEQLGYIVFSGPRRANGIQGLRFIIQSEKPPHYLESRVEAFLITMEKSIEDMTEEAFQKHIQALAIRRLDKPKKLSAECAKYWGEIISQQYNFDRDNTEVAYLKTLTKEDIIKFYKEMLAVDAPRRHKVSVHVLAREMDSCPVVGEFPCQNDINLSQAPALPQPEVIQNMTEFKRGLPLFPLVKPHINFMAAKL

[9] = Counterscreen for IDE inhibitors: Luminescence-based cell-based high throughput dose response assay to identify compounds that are cytotoxic to HEK cells. [Related pubchem assays: 434962 (Primary screen (IDE inhibitors in singlicate)), 449730 (Counterscreen (Cytotoxicity in triplicate)), 435028 (Confirmation (IDE inhibitors in triplicate)) …; assay type: functional; conditions: HEK293
[10] = target: T3, Protein skinhead-1 (Caenorhabditis elegans, UniProt P34707); assay type: functional
T3 sequence (P34707 whole entry): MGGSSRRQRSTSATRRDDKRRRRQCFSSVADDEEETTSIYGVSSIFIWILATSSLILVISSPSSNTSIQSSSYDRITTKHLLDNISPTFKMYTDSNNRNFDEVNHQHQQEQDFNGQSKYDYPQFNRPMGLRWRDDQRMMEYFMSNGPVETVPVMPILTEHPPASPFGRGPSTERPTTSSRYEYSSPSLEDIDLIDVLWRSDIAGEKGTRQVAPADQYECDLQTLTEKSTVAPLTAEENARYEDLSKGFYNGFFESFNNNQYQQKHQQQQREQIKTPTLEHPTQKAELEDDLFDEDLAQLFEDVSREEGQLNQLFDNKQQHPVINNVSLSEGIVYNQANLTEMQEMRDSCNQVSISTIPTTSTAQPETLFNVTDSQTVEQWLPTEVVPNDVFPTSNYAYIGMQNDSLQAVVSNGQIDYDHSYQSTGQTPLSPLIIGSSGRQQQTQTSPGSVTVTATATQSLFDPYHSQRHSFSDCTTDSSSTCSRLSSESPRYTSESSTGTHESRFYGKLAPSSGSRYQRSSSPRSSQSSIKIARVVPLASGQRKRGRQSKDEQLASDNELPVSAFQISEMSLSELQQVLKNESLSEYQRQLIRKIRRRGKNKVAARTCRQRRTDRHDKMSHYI

[11] = target: Melanin-concentrating hormone receptor 1 (Homo sapiens, UniProt Q99705); experiment: Fluorescence-based counterscreen for antagonists of the G-protein coupled receptor 7 (GPR7): cell-based high throughput dose response assay to identify antagonists of the melanin-concentrating hormone receptor 1 (MCHR1).; assay type: functional
[12] = NIH3T3 cell viability loss – ATP luminescence, mouse fibroblasts, counter-screen, dose response (AID 2010); assay type: functional, cell-based;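 note: cells exposed to compound for about 90 hours before reading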
[13] = target: Neuropeptide Y receptor type 1 (Homo sapiens, UniProt P25929); assay type: functional;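 note: HEK293 cells with a CNG channel challenged with NPY then isoproterenol; potency as antagonist that reverses NPY suppression of cAMP signal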
[14] = target: Neuropeptide Y receptor type 2 (Homo sapiens, UniProt P49146); assay type: functional, cell-based;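 note: HEK293 cells expressing the receptor and a CNG channel; stimulus was NPY near EC95 followed by isoproterenol to raise cAMP; antagonist potency measured as restoring cAMP signal that NPY suppresses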
[15] = viability of HCT116 lacking mutant beta-catenin – cell-based, human colon tumor, dose response (AID 1045); assay type: functional;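 note: HCT116 colon tumor cells with beta catenin knocked out; cells exposed to compound for 60 hours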
[16] = target: RNA-editing ligase 1, mitochondrial (Trypanosoma brucei brucei, UniProt P86926); experiment: inhibition of trypanosome RNA editing ligase – biochemical, fluorescence, Trypanosoma brucei, dose response (AID 1117295); assay type: functional
[17] = viability of PTEN-deleted HCT116 cells – cell-based, HCT116 PTEN knockout, dose response (AID 1047); assay type: functional;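 note: HCT116 colon tumor cells with PTEN knocked out; cells exposed to compound for 60 hours before readout; potency for loss of cell viability measured by luminescence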
[18] = Trypanosoma cruzi growth suppression in host cells – NIH3T3 host cells, beta-gal luminescence, confirmation (AID 2044); assay type: functional, cell-based;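 note: intracellular parasites grown in NIH/3T3 mouse fibroblasts as host cells; luminescent beta-galactosidase reporter signal from transgenic T. cruzi replicating inside host cells; inhibitors lower the luminescence signal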
[19] = target: T4, Streptokinase A (Streptococcus pyogenes serotype M1, UniProt P10520); experiment: viability-normalized secreted streptokinase activity reduction – plasminogen activation absorbance, OD405, dose response (AID 1914); assay type: functional, Streptococcus pyogenes M1 GAS;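 note: secreted streptokinase activity via plasminogen activation per viability signal from cell pellet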
T4 sequence (P10520 whole entry): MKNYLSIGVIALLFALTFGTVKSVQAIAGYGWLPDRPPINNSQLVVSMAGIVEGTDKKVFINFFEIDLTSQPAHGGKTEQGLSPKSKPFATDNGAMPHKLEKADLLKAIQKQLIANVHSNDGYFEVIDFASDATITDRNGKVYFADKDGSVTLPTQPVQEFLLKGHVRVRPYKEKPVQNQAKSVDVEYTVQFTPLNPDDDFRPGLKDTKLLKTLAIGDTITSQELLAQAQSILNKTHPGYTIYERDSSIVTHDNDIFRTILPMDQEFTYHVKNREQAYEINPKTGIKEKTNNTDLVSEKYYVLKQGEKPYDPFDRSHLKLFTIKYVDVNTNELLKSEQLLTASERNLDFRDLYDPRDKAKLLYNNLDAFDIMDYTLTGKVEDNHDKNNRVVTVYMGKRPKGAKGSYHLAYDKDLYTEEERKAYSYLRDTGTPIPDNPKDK

[20] = system: Streptococcus; experiment: GAS UMAA2166 growth inhibition – luminescence, BacTiterGlo, counter-screen for streptokinase expression inhibitor project, dose response (AID 1915); assay type: functional, organism-based;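 note: potency for reduction of bacterial viability or growth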
[21] = system: Streptococcus sp. 'group A'; experiment: Streptococcus pyogenes SK(-)GAS viability under kanamycin – luminescence, BacTiterGlo, confirmation, counter-screen for streptokinase expression inhibitor project, dose response (AID 1900); assay type: functional, organism-based
[22] = target: Intestinal-type alkaline phosphatase (Homo sapiens, UniProt P09923); experiment: Dose Response confirmation of uHTS hits from a small molecule inhibitors of human intestinal alkaline phosphatase via a luminescent assay. [Related pubchem assays (depositor defined):AID2544, AID2574]; assay type: functional
[23] = target: Luciferin 4-monooxygenase (Photinus pyralis, UniProt P08659); experiment: inhibition of purified Photinus pyralis luciferase – biochemical, luminescence, dose response (AID 1891)
[24] = Luminescence Cell-Based Dose Confirmation HTS to Identify Inhibitors of Platelet Dense Granule Release. [Related pubchem assays: 1663 (Primary HTS), 1678 (Summary of Project)]; assay type: functional

Neuropeptide Y receptor type 1, sequence (P25929 whole entry): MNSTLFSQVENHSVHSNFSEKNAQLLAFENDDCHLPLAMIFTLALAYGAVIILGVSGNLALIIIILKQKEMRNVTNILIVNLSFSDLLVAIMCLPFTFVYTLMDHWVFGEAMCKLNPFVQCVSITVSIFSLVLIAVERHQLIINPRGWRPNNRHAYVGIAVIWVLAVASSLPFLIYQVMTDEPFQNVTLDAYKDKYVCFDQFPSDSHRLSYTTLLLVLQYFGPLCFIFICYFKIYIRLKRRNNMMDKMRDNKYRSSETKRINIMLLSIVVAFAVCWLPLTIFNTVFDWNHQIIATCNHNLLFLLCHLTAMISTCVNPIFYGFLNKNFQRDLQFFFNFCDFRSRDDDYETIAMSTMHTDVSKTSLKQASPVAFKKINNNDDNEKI
Neuropeptide Y receptor type 2, sequence (P49146 whole entry): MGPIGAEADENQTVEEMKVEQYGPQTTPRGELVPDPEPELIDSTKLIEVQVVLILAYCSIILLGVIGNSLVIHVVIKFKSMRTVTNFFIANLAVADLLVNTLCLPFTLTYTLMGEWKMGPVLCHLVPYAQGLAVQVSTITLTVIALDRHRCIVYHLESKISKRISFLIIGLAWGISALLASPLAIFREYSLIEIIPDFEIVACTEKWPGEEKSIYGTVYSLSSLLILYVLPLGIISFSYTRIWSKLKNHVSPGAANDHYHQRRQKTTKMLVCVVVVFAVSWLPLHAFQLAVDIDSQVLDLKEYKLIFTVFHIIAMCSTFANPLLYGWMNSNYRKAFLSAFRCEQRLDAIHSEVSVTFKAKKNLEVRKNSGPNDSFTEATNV
Luciferin 4-monooxygenase, sequence (P08659 whole entry): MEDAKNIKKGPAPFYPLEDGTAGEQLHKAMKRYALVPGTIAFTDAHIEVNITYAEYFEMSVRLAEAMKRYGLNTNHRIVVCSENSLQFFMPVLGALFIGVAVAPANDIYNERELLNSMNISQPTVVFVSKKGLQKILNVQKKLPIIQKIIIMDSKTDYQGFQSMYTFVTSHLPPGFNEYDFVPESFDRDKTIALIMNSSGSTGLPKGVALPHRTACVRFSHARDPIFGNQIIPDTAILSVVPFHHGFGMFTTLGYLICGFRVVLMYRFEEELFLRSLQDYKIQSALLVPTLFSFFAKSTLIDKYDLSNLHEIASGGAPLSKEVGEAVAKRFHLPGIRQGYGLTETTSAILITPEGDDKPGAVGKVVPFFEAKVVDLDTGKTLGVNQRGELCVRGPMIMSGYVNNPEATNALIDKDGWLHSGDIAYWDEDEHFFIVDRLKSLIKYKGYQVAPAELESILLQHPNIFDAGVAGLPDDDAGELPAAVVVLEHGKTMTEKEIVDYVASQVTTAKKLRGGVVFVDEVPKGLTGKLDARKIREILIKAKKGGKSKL
Intestinal-type alkaline phosphatase, sequence (P09923 whole entry): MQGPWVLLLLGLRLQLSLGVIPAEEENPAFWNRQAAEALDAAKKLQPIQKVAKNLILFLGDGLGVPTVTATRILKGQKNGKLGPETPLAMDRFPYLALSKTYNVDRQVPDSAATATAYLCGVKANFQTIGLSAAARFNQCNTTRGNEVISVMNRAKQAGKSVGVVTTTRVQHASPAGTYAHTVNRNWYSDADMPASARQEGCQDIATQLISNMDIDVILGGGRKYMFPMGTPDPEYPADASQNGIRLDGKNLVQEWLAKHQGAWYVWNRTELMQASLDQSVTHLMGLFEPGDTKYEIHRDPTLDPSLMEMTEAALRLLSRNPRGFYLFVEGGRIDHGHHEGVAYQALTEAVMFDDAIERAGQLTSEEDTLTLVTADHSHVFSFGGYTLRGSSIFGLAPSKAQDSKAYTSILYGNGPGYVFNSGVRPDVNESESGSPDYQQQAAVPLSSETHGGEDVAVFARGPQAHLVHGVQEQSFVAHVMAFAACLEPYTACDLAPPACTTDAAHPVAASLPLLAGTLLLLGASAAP
Melanin-concentrating hormone receptor 1, sequence (Q99705 whole entry): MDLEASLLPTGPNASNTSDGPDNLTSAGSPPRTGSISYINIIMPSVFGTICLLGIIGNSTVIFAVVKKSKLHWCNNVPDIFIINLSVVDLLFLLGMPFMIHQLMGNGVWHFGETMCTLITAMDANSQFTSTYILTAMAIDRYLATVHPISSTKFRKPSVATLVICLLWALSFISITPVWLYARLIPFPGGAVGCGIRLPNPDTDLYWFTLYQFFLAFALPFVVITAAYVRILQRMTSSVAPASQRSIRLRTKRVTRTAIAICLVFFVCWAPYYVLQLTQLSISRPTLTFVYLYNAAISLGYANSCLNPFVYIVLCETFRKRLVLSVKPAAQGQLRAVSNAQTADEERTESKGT
RNA-editing ligase 1, mitochondrial, sequence (P86926 whole entry): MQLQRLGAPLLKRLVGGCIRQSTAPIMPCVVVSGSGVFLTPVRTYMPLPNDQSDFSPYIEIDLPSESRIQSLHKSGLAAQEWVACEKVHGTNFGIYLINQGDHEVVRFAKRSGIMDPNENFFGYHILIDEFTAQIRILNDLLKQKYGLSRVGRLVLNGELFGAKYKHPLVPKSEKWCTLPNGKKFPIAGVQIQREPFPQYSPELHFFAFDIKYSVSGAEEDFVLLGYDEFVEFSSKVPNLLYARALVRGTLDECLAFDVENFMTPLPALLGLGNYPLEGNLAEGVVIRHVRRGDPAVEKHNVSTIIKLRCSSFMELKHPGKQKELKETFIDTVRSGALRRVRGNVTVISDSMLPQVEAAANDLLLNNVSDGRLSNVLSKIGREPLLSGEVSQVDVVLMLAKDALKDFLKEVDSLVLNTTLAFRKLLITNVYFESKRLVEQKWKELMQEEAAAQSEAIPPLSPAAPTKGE
Hexokinase, sequence (Q38C41 whole entry): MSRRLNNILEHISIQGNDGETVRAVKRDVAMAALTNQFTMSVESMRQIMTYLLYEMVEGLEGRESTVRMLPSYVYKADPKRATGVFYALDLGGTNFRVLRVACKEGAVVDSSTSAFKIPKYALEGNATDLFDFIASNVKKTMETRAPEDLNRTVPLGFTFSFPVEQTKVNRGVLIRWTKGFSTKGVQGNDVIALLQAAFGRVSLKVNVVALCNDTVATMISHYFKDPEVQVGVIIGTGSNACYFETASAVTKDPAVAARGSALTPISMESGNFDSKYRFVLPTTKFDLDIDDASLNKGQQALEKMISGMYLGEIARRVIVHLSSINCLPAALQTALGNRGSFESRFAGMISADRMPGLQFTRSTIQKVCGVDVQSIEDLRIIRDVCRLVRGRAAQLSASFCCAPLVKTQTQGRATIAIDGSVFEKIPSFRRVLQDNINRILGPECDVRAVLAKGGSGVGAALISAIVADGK

## COc1ccc(C(=O)Nc2cc(F)cc(F)c2O)cc1
[1]
  IC50: > 25 µM (inactive)

## Cc1ccc(-c2nnc(N3CCC(C)CC3)c3ccccc23)cc1C
[2]
  EC50: 3.35 µM (active)
[3]
  AC50: 4.62 µM (active)
[4]
  AC50: 6.41 µM (active)
[5]
  AC50: 8.42 µM (active)

## O=C(CSc1ccccc1)N1c2ccccc2Sc2ccccc21
[6]
  EC50: 239 µM (active)

## CCc1sc(C(=O)NNC(=O)CNC(=O)c2ccccc2F)cc1C
[7]
  AC50: 73 µM (active)

## O=C(Nc1cccc(Cl)c1)N1CCN(C/C=C/c2ccccc2)CC1
[2]
  EC50: 0.12 µM (active)

## CC(OC(=O)/C(C#N)=C/c1ccc(N(C)C)cc1)C(=O)N(C)c1ccccc1 (stereo not drawn)
[8]
  IC50: 21.4 µM (not active)
[9]
  IC50: 40.3 µM (not active)
[10]
  IC50: > 100 µM (inactive)

## CC(C)Cc1cc(C(=O)N2CCCC(CO)(Cc3ccc(F)cc3F)C2)[nH]n1 (stereo not drawn)
[11]
  IC50: 33 µM (not active)

## Cc1cc(Cl)c(OCCCNCc2ccccc2)c(Br)c1
[12]
  EC50: 14.3 µM (active)
[13]
  IC50: 5.39 µM (active)
[14]
  IC50: 5.15 µM (active)
[15]
  EC50: 16.5 µM (active)
[16]
  IC50: > 96.6 µM (inactive)
[17]
  EC50: 21.9 µM (active)
[18]
  EC50: 1.86 µM (active)

## Cc1noc(C)c1CSc1nc2sc(C)c(C)c2c(=O)n1C1CCCC1
[19]
  EC50: 3.31 µM (active)
[6]
  EC50: > 500 µM (not active)
[20]
  EC50: > 150 µM (not active)
[21]
  EC50: 5.22 µM (active)

## Cc1ccc(NC(=O)c2ccncc2)cc1[N+](=O)[O-]
[22]
  IC50: > 100 µM (inactive)

## Cc1ccc(-c2cc(C(=O)Nc3ccc4c(c3)OCCO4)c3ccccc3n2)cc1
[13]
  IC50: 5.01 µM (active)
[23]
  EC50: 1.06 µM (active)
[14]
  IC50: 5.35 µM (active)
[24]
  EC50: 16.9 µM (active)
